Reference: US20110182850A1, “ORGANIC COMPOUNDS AND THEIR USES” (priority 2009, published 2011)
pIC50: −log10 of the molar value.

Each compound was assayed against T1, HCV NS3-4A serine protease (full-length NS3-4A protein, genotype 1a, strain HCV-1) (Hepatitis C virus genotype 1a, UniProt P26664) (assay: HCV NS3-4A protease assay). Settings: Protease IC50.
T1 construct: using the full-length NS3-4A protein (genotype 1a, strain HCV-1)
Assay type: biochemical
Description: The inhibitory activity of certain compounds of Table A against HCV NS3-4A serine protease is determined in a homogenous assay using the full-length NS3-4A protein (genotype 1a, strain HCV-1) and a commercially available internally-quenched fluorogenic peptide substrate as described by Taliani, M., et al. 1996 Anal. Biochem. 240:60-67, which is incorporated by reference in its entirety.

T1 sequence (P26664 1658-1711): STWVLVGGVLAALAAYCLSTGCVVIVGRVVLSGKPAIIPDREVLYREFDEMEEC
T1 sequence (P26664 1027-1657): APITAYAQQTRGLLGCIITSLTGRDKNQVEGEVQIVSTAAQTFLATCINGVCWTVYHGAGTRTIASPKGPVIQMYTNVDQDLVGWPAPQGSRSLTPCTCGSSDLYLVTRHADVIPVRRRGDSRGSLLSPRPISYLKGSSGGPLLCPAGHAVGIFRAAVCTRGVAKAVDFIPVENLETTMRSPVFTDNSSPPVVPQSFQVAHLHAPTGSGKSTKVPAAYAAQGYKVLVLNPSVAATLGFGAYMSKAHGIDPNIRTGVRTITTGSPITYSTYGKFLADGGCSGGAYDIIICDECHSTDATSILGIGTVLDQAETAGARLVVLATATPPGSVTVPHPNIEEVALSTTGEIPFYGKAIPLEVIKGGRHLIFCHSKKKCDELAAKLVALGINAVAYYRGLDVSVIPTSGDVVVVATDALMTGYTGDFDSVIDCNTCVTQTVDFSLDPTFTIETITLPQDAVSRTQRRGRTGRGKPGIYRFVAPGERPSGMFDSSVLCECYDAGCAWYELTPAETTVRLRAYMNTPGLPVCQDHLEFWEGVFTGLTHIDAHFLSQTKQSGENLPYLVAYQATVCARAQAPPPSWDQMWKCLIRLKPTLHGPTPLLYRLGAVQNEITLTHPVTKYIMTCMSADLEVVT

Compound | pIC50
C=C[C@@H]1C[C@]1(NC(=O)[C@@H]1C[C@@]2(CN1C(=O)[C@@H](NC(=O)[C@@H](NC(=O)c1[nH]c(C)c(C)c1C(C)=O)C1CCCCC1)C(C)(C)C)C(C)(C)C21CCC1)C(=O)NS(=O)(=O)C1CC1 [Compound 118, (5R,8S)-7-[(2S)-2-{[(2S)-2-{[(3-acetyl-4,5-dimethyl-1H-pyrrol-2-yl)carbonyl]amino}-2-cyclohexylacetyl]amino}-3,3-dimethylbutanoyl]-N-{(1R,2S)-1-[(cyclopropylsulfonyl)carba-moyl]-2-vinylcyclopropyl}-10,10-dimethyl-7-azadispiro[3.0.4.1]decane-8-carboxamide] | 8.85
C=C[C@@H]1C[C@]1(NC(=O)[C@@H]1C[C@@]2(CN1C(=O)[C@@H](NC(=O)[C@@H](NC(=O)c1c(C)nn(C)c1C)C(C)(C)C)C(C)(C)C)C(C)(C)C21CCC1)C(=O)NS(=O)(=O)C1CC1 [Compound 137, (5R,8S)-N-{(1R,2S)-1-[(cyclopropylsulfonyl)carba-moyl]-2-vinylcyclopropyl}-7-[(2S)-2-{[(2S)-3,3-dimethyl-2-{[(1,3,5-trimethyl-1H-pyrazol-4-yl)carbonyl]amino}butanoyl]amino}-3,3-dimethylbutanoyl]-10,10-dimethyl-7-azadispiro[3.0.4.1]decane-8-carboxamide] | 7.52
C=C[C@H]1C[C@@]1(NC(=O)[C@@H]1C[C@@]2(CN1C(=O)[C@@H](NC(=O)[C@@H](NC(=O)C(C)(C)N1CCN(C(C)(C)C)CC1)C1CCCCC1)C(C)(C)C)C(C)(C)C21CCC1)C(=O)NS(=O)(=O)C1CC1 [Compound 102, (5R,8S)-7-[(2S)-2-{[{[2-(4-tert-butylpiperazin-1-yl)-2-methylpropanoyl]amino}(cyclo-hexyl)acetyl]amino}-3,3-dimethylbutanoyl]-N-{(1R,2S)-1-[(cyclopropylsulfonyl)carba-moyl]-2-vinylcyclopropyl}-10,10-dimethyl-7-azadispiro[3.0.4.1]decane-8-carboxamide] | 9.00
C=C[C@@H]1C[C@]1(NC(=O)[C@@H]1C[C@@]2(CN1C(=O)[C@@H](NC(=O)[C@@H](NC(=O)OC(C)(C)C)C(C)(C)C)C(C)(C)C)C(C)(C)C21CCC1)C(=O)NS(=O)(=O)C1CC1 [Compound 6, tert-butyl [(1S)-1-{[(1S)-1-{[(5R,8S)-8-({(1R,2S)-1-[(cyclopropylsulfonyl)carba-moyl]-2-vinylcyclopropyl}carbamoyl)-10,10-dimethyl-7-azadispiro[3.0.4.1]dec-7-yl]carbonyl}-2,2-dimethylpropyl]carbamoyl}-2,2-dimethylpropyl]carbamate] | 7.10
C=C[C@@H]1C[C@]1(NC(=O)[C@@H]1C[C@@]2(CN1C(=O)[C@@H](NC(=O)[C@@H](NC(=O)[C@H]1CCCCN1C(C)C)C(C)(C)C)C(C)(C)C)C(C)(C)C21CCC1)C(=O)NS(=O)(=O)C1CC1 [Compound 142, (5R,8S)-N-{(1R,2S)-1-[(cyclopropylsulfonyl)carba-moyl]-2-vinylcyclopropyl}-7-[(2S)-2-{[(2S)-2-({[(2R)-1-isopropylpiperidin-2-yl]carbonyl}amino)-3,3-dimethylbutanoyl]amino}-3,3-dimethylbutanoyl]-10,10-dimethyl-7-azadispiro[3.0.4.1]decane-8-carboxamide] | 8.52
C=C[C@@H]1C[C@]1(NC(=O)[C@@H]1C[C@@]2(CN1C(=O)[C@@H](NC(=O)[C@@H](NC(=O)[C@@H]1CCN1C(C)C)C(C)(C)C)C(C)(C)C)C(C)(C)C21CCC1)C(=O)NS(=O)(=O)C1CC1 [Compound 131, (5R,8S)-N-{(1R,2S)-1-[(cyclopropylsulfonyl)carba-moyl]-2-vinylcyclopropyl}-7-[(2S)-2-{[(2S)-2-({[(2S)-1-isopropylazetidin-2-yl]carbonyl}amino)-3,3-dimethylbutanoyl]amino}-3,3-dimethylbutanoyl]-10,10-dimethyl-7-azadispiro[3.0.4.1]decane-8-carboxamide] | 9.10
C=C[C@@H]1C[C@]1(NC(=O)[C@@H]1C[C@@]2(CN1C(=O)[C@@H](NC(=O)[C@@H](NC(=O)[C@@H]1CCCCN1C(C)C)C1CCCCC1)C(C)(C)C)C(C)(C)C21CCC1)C(=O)NS(=O)(=O)c1ccccc1 [Compound 61, (5R,8S)-7-[(2S)-2-{[(2S)-2-cyclohexyl-2-({[(2S)-1-isopropylpiperidin-2-yl]carbonyl}amino)acetyl]amino}-3,3-dimethylbutanoyl]-10,10-dimethyl-N-{(1R,2S)-1-[(phenylsulfonyl)carbamoyl]-2-vinylcyclopropyl}-7-azadispiro[3.0.4.1]decane-8-carboxamide] | 8.82
C=C[C@@H]1C[C@]1(NC(=O)[C@@H]1C[C@@]2(CN1C(=O)[C@@H](NC(=O)[C@@H](NC(C)=O)C1CCCCC1)C(C)(C)C)C(C)(C)C21CCC1)C(=O)NS(=O)(=O)C1CC1 [Compound 99, (5R,8S)-7-[(2S)-2-{[(2S)-2-acetamido-2-cyclohexylacetyl]amino}-3,3-dimethylbutanoyl]-N-{(1R,2S)-1-[(cyclopropylsulfonyl)carba-moyl]-2-vinylcyclopropyl}-10,10-dimethyl-7-azadispiro[3.0.4.1]decane-8-carboxamide] | 8.22
C=C[C@@H]1C[C@]1(NC(=O)[C@@H]1C[C@@]2(CN1C(=O)[C@@H](NC(=O)[C@@H](NC(=O)c1ccc[nH]1)C1CCCCC1)C(C)(C)C)C(C)(C)C21CCC1)C(=O)NS(=O)(=O)C1CC1 [Compound 114, (5R,8S)-7-[(2S)-2-({(2S)-2-cyclohexyl-2-[(1H-pyrrol-2-ylcarbonyl)amino]acetyl}amino)-3,3-dimethylbutanoyl]-N-{(1R,2S)-1-[(cyclopropylsulfonyl)carba-moyl]-2-vinylcyclopropyl}-10,10-dimethyl-7-azadispiro[3.0.4.1]decane-8-carboxamide] | 9.15
CC(C)(C)[C@H](NC(=O)[C@@H](NC(=O)C(C)(C)N1CCCC1)C1CCCCC1)C(=O)N1C[C@]2(C[C@H]1C(=O)NC1(C(=O)NS(=O)(=O)C3CC3)CC1)C(C)(C)C21CCC1 [Compound 3, (5R,8S)-7-[(2S)-2-({(2S)-2-cyclohexyl-2-[(2-methyl-2-pyrrolidin-1-ylpropanoyl)amino]acetyl}amino)-3,3-dimethylbutanoyl]-N-{1-[(cyclopropylsulfonyl)carba-moyl]cyclopropyl}-10,10-dimethyl-7-azadispiro[3.0.4.1]decane-8-carboxamide] | 7.35
C=C[C@@H]1C[C@]1(NC(=O)[C@@H]1C[C@@]2(CN1C(=O)[C@@H](NC(=O)[C@@H](NC(=O)[C@@H]1CCCCN1CCF)C(C)(C)C)C(C)(C)C)C(C)(C)C21CCC1)C(=O)NS(=O)(=O)C1CC1 [Compound 9, (5R,8S)-N-{(1R,2S)-1-[(cyclopropylsulfonyl)carba-moyl]-2-vinylcyclopropyl}-7-[(2S)-2-{[(2S)-2-({[(2S)-1-(2-fluoroethyl)piperidin-2-yl]carbonyl}amino)-3,3-dimethylbutanoyl]amino}-3,3-dimethylbutanoyl]-10,10-dimethyl-7-azadispiro[3.0.4.1]decane-8-carboxamide] | 8.10
C=C[C@H]1C[C@@]1(NC(=O)[C@@H]1C[C@@]2(CN1C(=O)[C@@H](NC(=O)[C@@H](NC(=O)c1ccno1)C1CCCCC1)C(C)(C)C)C(C)(C)C21CCC1)C(=O)NS(=O)(=O)C1CC1 [Compound 107, (5R,8S)-7-[(2S)-2-({cyclohexyl[(isoxazol-5-ylcarbonyl)amino]acetyl}amino)-3,3-dimethylbutanoyl]-N-{(1R,2S)-1-[(cyclopropylsulfonyl)carba-moyl]-2-vinylcyclopropyl}-10,10-dimethyl-7-azadispiro[3.0.4.1]decane-8-carboxamide] | 9.22

Same assay, conditions: read-out: Protease IC50

Compound | pIC50
C=C[C@@H]1C[C@]1(NC(=O)[C@@H]1C[C@@]2(CN1C(=O)[C@@H](NC(=O)[C@@H](NS(=O)(=O)C(C)C)C(C)(C)C)C(C)(C)C)C(C)(C)C21CCC1)C(=O)NS(=O)(=O)C1CC1 [Compound 58, (5R,8S)-N-{(1R,2S)-1-[(cyclopropylsulfonyl)carba-moyl]-2-vinylcyclopropyl}-7-[(2S)-2-({(2S)-2-[(isopropylsulfonyl)amino]-3,3-dimethylbutanoyl}amino)-3,3-dimethylbutanoyl]-10,10-dimethyl-7-azadispiro[3.0.4.1]decane-8-carboxamide] | 6.40
C=C[C@@H]1C[C@]1(NC(=O)[C@@H]1C[C@@]2(CN1C(=O)[C@@H](NC(=O)OC1CCCC1)C(C)(C)C)C(C)(C)C21CCC1)C(=O)NS(=O)(=O)C1CC1 [Compound 10, cyclopentyl [(1S)-1-{[(5R,8S)-8-({(1R,2S)-1-[(cyclopropylsulfonyl)carba-moyl]-2-vinylcyclopropyl}carbamoyl)-10,10-dimethyl-7-azadispiro[3.0.4.1]dec-7-yl]carbonyl}-2,2-dimethylpropyl]carbamate] | 7.60
(5R,8S)-7-[(2S)-2- ({cyclohexyl[(1H-pyrazol-4- ylcarbonyl)amino]acetyl} amino)-3,3-dimethylbutanoyl]-N- {(1R,2S)-1- [(cyclopropylsulfonyl)carba- moyl]-2-vinylcyclopropyl}- 10,10-dimethyl-7- azadispiro[3.0.4.1]decane-8- carboxamide [Compound 106] | 9.00
C=C[C@@H]1C[C@]1(NC(=O)[C@@H]1C[C@@]2(CN1C(=O)[C@@H](NC(=O)[C@@H](NS(=O)(=O)c1ccccc1)C(C)(C)C)C(C)(C)C)C(C)(C)C21CCC1)C(=O)NS(=O)(=O)C1CC1 [Compound 46, (5R,8S)-N-{(1R,2S)-1-[(cyclopropylsulfonyl)carba-moyl]-2-vinylcyclopropyl}-7-[(2S)-2-({(2S)-3,3-dimethyl-2-[(phenylsulfonyl)amino]butanoyl}amino)-3,3-dimethylbutanoyl]-10,10-dimethyl-7-azadispiro[3.0.4.1]decane-8-carboxamide] | 6.82
